The values below come from patent US5708032A, “Fluoroalkenyl compounds and their use as pest control agents” (Monsanto Company, priority 1995, dated 1998).

This test deals with root knot nematodes (Meloidogyne incognita). Description: systemic control of root knot nematodes on tomato roots by foliar application. It is filed as in vivo. The note with it: for pest or weed control at 100 ppm / pest or weed control at 500 ppm: Meloidogyne incognita, 504 h, read-out: percent control of root disease relative to non-treated plants. Here is the method: Compounds of the present invention, prepared as described above, were tested for effectiveness in controlling root knot nematodes (Meloidogyne incognita) on tomato roots when applied to foliage of young plants.
Tomato plants, cv `Rutgers`, were grown one per pot in six an square plastic pots containing a mixture of equal parts fine sand, coarse sand, silt loam soil, and commercial potting medium. A 10,000 ppm stock solution of each test compound was prepared in either water or acetone. Samples were then diluted with additional water to give final test concentrations of 500 and 100 ppm. Tween®20 was added for a final concentration of 0.5% v/v in all test samples.
When the tomato plants were 18-21 days old the test solutions were sprayed onto the leaves and stems. Each rate of each test compound was applied to three tomato plants using four ml of spray solution per plant. One day after spraying the plants were inoculated with mature root knot nematode eggs containing J1 larvae, with 8,000 eggs per plant applied in 5 ml of water on soil at the stem base. Plants then were incubated in a growth chamber at 27° C. with all replicate pots randomized throughout the chamber. During the two weeks immediately following application of the test compounds all plants received sub-irrigation and the foliage was kept dry.
After three weeks incubation the plant roots were washed and nematode disease severity was assessed. Each root system was rated individually and a visual estimate of the percent of the root system afflicted with nematode galling was determined. Values of 0, 1, 5, 10, 20, 30, 40, 50, 60, 70, 80, or 100 percent galled roots were assigned to each plant. […] For each treatment (compound & rate) a standard deviation was calculated for the mean of the three replicate plants. Percent disease control relative to non-treated plants also was calculated.

The mark [1] stands for this setting: 100 ppm foliar spray, tomato cv Rutgers, 3 weeks, mean of three plants, non-treated generally 60% or greater.
Setting [2] is: 500 ppm foliar spray, tomato cv Rutgers, 3 weeks, mean of three plants, non-treated generally 60% or greater.
[3] abbreviates: 100 ppm foliar spray, tomato cv Rutgers, 3 weeks, * = no biological activity at the rate tested.
The mark [4] stands for this setting: 500 ppm foliar spray, tomato cv Rutgers, 3 weeks, * = no biological activity at the rate tested.

Where “and” joins values, the source holds several entries; their conditions need not be identical. Equal values may be shown once. Where a name gives a salt, the structure may show the parent alone. Read-outs that look alike come from different tables or passages of the source.

As for `N#CCNC(=O)CC(F)=C(F)F` [Example 2, 3-BUTENAMIDE, N-CYANOMETHYL)-3,4,4- TRIFLUORO-], the “Mean percent root disease (galled)” value worked out at 73% under setting [1] and 67% under setting [2]. Under setting [3], the pest or weed control at 100 ppm came to 8%. The pest or weed control at 500 ppm under setting [4] amounted to 17%.

As to `CONC(=O)CC(F)=C(F)F` [Example 3, 3-BUTENAMIDE, 3,4,4-TRIFLUORO-N-METHOXY-], the “Mean percent root disease (galled)” value under setting [1] is listed as 77% and the “Mean percent root disease (galled)” value under setting [2] came to 70%. Further, the pest or weed control at 100 ppm under setting [3] turned out to be 12%. Besides, the pest or weed control at 500 ppm under setting [4] came out at 20%.

For `NC(=O)NNC(=O)CC(F)=C(F)F` [Example 4, 3-BUTENOIC ACID, 3,4,4-TRIFLUORO-, 2-(AMINOCARBONYL)HYDRAZIDE], the “Mean percent root disease (galled)” value by setting is: under setting [1], 80%; under setting [2], 73%. For the same molecule, the pest or weed control at 100 ppm under setting [3] was determined as 0%. Moreover, the pest or weed control at 500 ppm under setting [4] stood at 8%.

Take `COc1cc(OC)nc(NC(=O)CC(F)=C(F)F)n1` [Example 5, 3-BUTENAMIDE, N-(4,6-DIMETHOXY-2-PYRIMIDINYL)- 3,4,4-TRIFLUORO-]: the “Mean percent root disease (galled)” value runs as follows: under setting [1], 90%; under setting [2], 30%. For the same molecule, the pest or weed control at 100 ppm under setting [3] is -3%. The pest or weed control at 500 ppm under setting [4] stood at 66%.

Take `C[Si](C)(C)CN(Cc1ccccc1)C(=O)CC(F)=C(F)F` [Example 6, 3-BUTENAMIDE, 3,4,4-TRIFLUORO-N-(PHENYLMETHYL)- N-[(TRIMETHYLSILYL) METHYL]-]: for the setting “foliar”, the pest or weed control at 100 ppm turned out to be 2% and the pest or weed control at 500 ppm came out at 0%. In addition, the “Mean percent root disease (galled)” value (in vivo) was 87% and 85%.

`O=C(CC(F)=C(F)F)Nc1ccc(S(=O)(=O)O)cc1` [Example 7, BENZENESULFONIC ACID, 4-[(3,4,4-TRIFLUORO-1-OXO-3- BUTENYL)AMINO]-]: the “Mean percent root disease (galled)” value is, setting by setting: under setting [1], 23%; under setting [2], 17%. Also, under setting [3], the pest or weed control at 100 ppm is 56%. The pest or weed control at 500 ppm under setting [4] is 69%.

Regarding `CS(=O)(=O)NC(=O)CC(F)=C(F)F` [Example 8, 3-BUTENAMIDE, 3,4,4-TRIFLUORO-N- (METHYLSULFONYL)-], the “Mean percent root disease (galled)” value by setting is: under setting [1], 80%; under setting [2], 5%. In addition, under setting [3], the pest or weed control at 100 ppm turned out to be 0%. The pest or weed control at 500 ppm under setting [4] came to 94%.

Consider `O=C(CC(F)=C(F)F)NS(=O)(=O)C(F)(F)F` [Example 9, 3-BUTENAMIDE, 3,4,4-TRIFLUORO-, N-[(TRIFLUOROMETHYL)SULFONYL]-], for which the “Mean percent root disease (galled)” value is listed as 80% under setting [1] and 5% under setting [2]. Also, the pest or weed control at 100 ppm under setting [3] was 0%. The pest or weed control at 500 ppm under setting [4] came to 94%.

In the case of `O=C(CC(F)=C(F)F)NCS(=O)(=O)O` [Example 10, METHANESULFONIC ACID, [(3,4,4-TRIFLUORO-1-OXO-3- BUTENYL)AMINO]-], the “Mean percent root disease (galled)” value reads like this: under setting [1], 20%; under setting [2], 27%. Moreover, the pest or weed control at 100 ppm under setting [3] was determined as 62%. For the same molecule, the pest or weed control at 500 ppm under setting [4] came to 50%.

For `O=C(CC(F)=C(F)F)n1cncn1` [Example 11, 1H-1,2,4-TRIAZOLE, 1-(3,4,4-TRIFLUORO-1-OXO-3- BUTENYL)-], the “Mean percent root disease (galled)” value is, setting by setting: under setting [1], 80%; under setting [2], 7%. Moreover, the pest or weed control at 100 ppm under setting [3] was 0%. For the same molecule, the pest or weed control at 500 ppm under setting [4] is 92%.

On to `O=C(CC(F)=C(F)F)n1cccn1` [Example 12, 1H-PYRAZOLE, 1-(3,4,4-TRIFLUORO-1-OXO-3- BUTENYL)-], for which the “Mean percent root disease (galled)” value reads like this: under setting [1], 80%; under setting [2], 43%. The pest or weed control at 100 ppm under setting [3] was determined as 0%. In addition, the pest or weed control at 500 ppm under setting [4] was 46%.

As to `FC(F)=C(F)CC(=S)Nc1ccccc1` [Example 13, 3-BUTENETHIOAMIDE, 3,4,4-TRIFLUORO-N-PHENYL-], the “Mean percent root disease (galled)” value reads like this: under setting [1], 40%; under setting [2], 27%. Also, under setting [3], the pest or weed control at 100 ppm stood at 25%. In addition, under setting [4], the pest or weed control at 500 ppm worked out at 50%.

`C[Si](C)(C)CCCOC(=O)CC(F)=C(F)F` [Example 14, 3-BUTENOIC ACID, 3,4,4-TRIFLUORO-, 3-(TRIMETHYLSILYL)PROPYL ESTER]: for the setting “foliar”, the pest or weed control at 100 ppm stood at 4% and the pest or weed control at 500 ppm stood at 8%. Moreover, for the setting “in vivo”, the “Mean percent root disease (galled)” value was 80% and 83%.

For `C[Si](C)(C)CCSC(=O)CC(F)=C(F)F` [Example 15, 3-BU[…], 3,4,4-TRIFLUORO-, S-[2-(TRIMETHYLSILYL)ETHYL] ESTER], under “foliar”, the pest or weed control at 100 ppm is 2% and the pest or weed control at 500 ppm is -3%. In addition, the “Mean percent root disease (galled)” value (in vivo) was 90% and 85%.

On to `O=C(CC(F)=C(F)F)Sc1ncccn1` [Example 16, 3,-BUTENETHIOIC ACID, 3,4,4-TRIFLUORO-, S-2-PYRIMIDINYL ESTER], for which the “Mean percent root disease (galled)” value runs as follows: under setting [1], 80%; under setting [2], 50%. Moreover, the pest or weed control at 100 ppm under setting [3] worked out at 0%. Besides, the pest or weed control at 500 ppm under setting [4] stood at 38%.

In the case of `O=P(O)(O)CC(F)=C(F)F` [Example 18, PHOSPHONIC ACID, (2,3,3-TRIFLUORO-2-PROPENYL)-], for the setting “foliar”, the pest or weed control at 100 ppm was -5% and the pest or weed control at 500 ppm was 0%. The “Mean percent root disease (galled)” value (in vivo) is 73% and 77%.

With `O=P(O)(CC(F)=C(F)F)c1ccccc1` [Example 19, PHOSPHINIC ACID, PHENYL(2,3,3-TRIFLUORO-2- PROPENYL)-, SODIUM SALT], the “Mean percent root disease (galled)” value by setting is: under setting [1], 73%; under setting [2], 73%. Besides, under setting [3], the pest or weed control at 100 ppm was found to be 0%. For the same molecule, the pest or weed control at 500 ppm under setting [4] is 0%.

`Cc1ccccc1C(=O)CC(F)=C(F)F` [Example 20, 3-BUTEN-1-ONE, 3,4,4-TRIFLUORO-1-(2-METHYL PHENYL)-]: the “Mean percent root disease (galled)” value runs as follows: under setting [1], 53%; under setting [2], 47%. Moreover, under setting [3], the pest or weed control at 100 ppm is 0%. Further, the pest or weed control at 500 ppm under setting [4] worked out at 12%.
